The values that follow come from patent US10683297B2 (Sunshine Lake Pharma Co., Ltd., priority 2017, dated 2020).

Series [1] can be described thus: Pharmacokinetics after intravenous and oral administration in rats. The note with it: for Clearance (CL) after iv dosing / AUC(0-t) / half-life / Vd: dose 1 mg/kg (Ex. 9: 0.6, Ex. 18: 0.5, Ex. 50: 0.96 mg/kg), iv dosing; for AUC(0-t) / half-life / Vd / bioavailability: rat, plasma; for Vd: read-out: Vss; for bioavailability: oral (generally 5 or 10 mg/kg) versus iv dosing, read-out: F (oral bioavailability). Format: in vivo. Put shortly: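 Rats dosed i.v. (about 0.5, 0.6, 1 or 2 mg/kg) or p.o. (5 or 10 mg/kg) as solution, suspension or capsule. Plasma sampled over 24 h and quantified by LC/MS/MS in MRM mode with ESI.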

The target of series [2] is T1, Aurora-B (h) (Homo sapiens, UniProt Q96GD4).
T1 construct: purchased Millipore UK Ltd (assays performed there as a service)
T1 sequence (Q96GD4 whole entry): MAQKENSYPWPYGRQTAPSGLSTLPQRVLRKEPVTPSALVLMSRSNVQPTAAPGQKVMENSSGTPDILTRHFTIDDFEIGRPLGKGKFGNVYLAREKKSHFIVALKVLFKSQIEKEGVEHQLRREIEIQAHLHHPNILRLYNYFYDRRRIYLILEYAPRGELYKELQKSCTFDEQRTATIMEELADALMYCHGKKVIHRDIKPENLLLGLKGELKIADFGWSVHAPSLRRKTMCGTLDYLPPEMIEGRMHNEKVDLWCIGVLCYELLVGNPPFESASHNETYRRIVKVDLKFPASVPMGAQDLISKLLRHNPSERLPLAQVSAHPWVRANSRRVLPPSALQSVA
As to the kind of experiment: Aurora-B (h) kinase assay. In kind it is biochemical. The conditions noted are these: [γ-33P-ATP] 10 μM or KM values; 40 minutes at room temperature. As to the method:
(§1) The above assay procedure can be used to determine the IC50 for inhibition and/or the inhibition constant, Ki. […] The IC50 value is estimated by preparing a 10 point curve using a ½ log dilution series (for example, a typical curve may be prepared using the following compound concentrations: 3 μM, 1 μM, 0.3 μM, 0.1 μM, 0.03 μM, 0.01 μM, 0.003 μM, 0.001 μM, 0.0003 μM and 0 μM).
Aurora-B (h) is incubated with 8 mM MOPS pH 7.0, 0.2 mM EDTA, 30 μM […], 10 mM MgAcetate and [γ-^33PATP] […] The reaction is initiated by the addition of the MgATP mix. After incubation for 40 minutes at room temperature, the reaction is stopped by the addition of a 3% phosphoric acid solution. 10 μL of the reaction is then spotted onto a P30 filtermat and washed three times for 5 minutes in 75 mM phosphoric acid and once in methanol prior to drying and scintillation counting.
(§2) The kinase assays described herein were performed at Millipore UK Ltd, Dundee Technology Park, Dundee DD2 1SW, UK.

For series [3], the target named is T2, JAK1 (h) (Homo sapiens, UniProt P23458).
T2 construct: purchased Millipore UK Ltd (assays performed there as a service)
T2 sequence (P23458 whole entry): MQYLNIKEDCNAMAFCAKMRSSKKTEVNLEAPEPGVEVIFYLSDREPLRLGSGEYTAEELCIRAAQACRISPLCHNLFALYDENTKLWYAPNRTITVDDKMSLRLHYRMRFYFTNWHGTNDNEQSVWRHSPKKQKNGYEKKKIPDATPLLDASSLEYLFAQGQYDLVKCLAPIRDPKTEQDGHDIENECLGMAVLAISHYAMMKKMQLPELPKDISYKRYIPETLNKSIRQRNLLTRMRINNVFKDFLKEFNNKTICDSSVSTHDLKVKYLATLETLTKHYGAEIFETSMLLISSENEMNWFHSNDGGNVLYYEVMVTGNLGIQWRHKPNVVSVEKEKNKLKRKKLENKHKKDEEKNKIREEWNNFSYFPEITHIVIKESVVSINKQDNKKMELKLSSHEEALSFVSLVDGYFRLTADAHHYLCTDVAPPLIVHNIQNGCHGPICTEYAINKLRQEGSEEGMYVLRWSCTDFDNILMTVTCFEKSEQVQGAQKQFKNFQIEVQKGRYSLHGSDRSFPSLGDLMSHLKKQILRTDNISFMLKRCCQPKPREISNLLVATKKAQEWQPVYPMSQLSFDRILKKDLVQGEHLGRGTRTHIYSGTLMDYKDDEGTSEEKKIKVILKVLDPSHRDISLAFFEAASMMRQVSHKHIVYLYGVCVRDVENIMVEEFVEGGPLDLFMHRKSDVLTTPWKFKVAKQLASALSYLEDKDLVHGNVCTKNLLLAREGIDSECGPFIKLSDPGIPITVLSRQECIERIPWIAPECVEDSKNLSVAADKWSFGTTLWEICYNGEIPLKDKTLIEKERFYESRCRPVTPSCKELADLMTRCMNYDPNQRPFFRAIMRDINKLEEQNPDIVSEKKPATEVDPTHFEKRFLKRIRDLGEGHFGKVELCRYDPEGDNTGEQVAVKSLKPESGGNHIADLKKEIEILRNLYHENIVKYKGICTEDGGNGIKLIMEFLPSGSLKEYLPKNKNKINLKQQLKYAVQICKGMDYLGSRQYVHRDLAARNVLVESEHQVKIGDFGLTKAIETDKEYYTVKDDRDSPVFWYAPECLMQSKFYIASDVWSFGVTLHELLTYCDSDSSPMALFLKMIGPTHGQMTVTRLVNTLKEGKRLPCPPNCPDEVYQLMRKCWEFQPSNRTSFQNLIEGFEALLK
The series can be described thus: JAK1 (h) kinase assay. Format: biochemical. The conditions noted are these: [γ-33P-ATP] 10 μM or KM values; 40 minutes at room temperature. Put shortly:
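Radiometric filter-binding assay: human JAK1 incubated 40 min at room temperature in 20 mM Tris/HCl pH 7.5, 0.2 mM EDTA, 500 μM peptide substrate, 10 mM Mg acetate, with [γ-33P]ATP at 10 μM or KM. Reaction stopped with phosphoric acid; P30 filtermat scintillation counting.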

The target of series [4] is T3, Aurora-A (h) (Homo sapiens, UniProt O14965).
T3 construct: purchased Millipore UK Ltd (assays performed there as a service)
T3 sequence (O14965 1-403): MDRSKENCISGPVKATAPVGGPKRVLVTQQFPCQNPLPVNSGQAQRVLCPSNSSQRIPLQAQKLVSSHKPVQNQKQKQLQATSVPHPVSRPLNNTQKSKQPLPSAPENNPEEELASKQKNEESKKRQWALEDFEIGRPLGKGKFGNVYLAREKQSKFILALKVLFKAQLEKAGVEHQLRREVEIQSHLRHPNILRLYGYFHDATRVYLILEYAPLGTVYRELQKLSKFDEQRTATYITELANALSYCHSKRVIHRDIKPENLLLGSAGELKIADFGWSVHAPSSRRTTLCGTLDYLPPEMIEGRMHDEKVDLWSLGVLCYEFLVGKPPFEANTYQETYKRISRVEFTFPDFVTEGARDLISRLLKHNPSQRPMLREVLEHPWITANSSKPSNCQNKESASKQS
As to the kind of experiment: Aurora-A (h) kinase assay. In kind it is biochemical. The note with it: [γ-33P-ATP] 10 μM or KM values; 40 minutes at room temperature. How it is done: as §1
Aurora-A (h) is incubated with 8 mM MOPS pH 7.0, 0.2 mM EDTA, 200 μM LRRASLG (Kemptide), 10 mM MgAcetate and [γ-^33P-ATP] […] The reaction is initiated by the addition of the MgATP mix. After incubation for 40 minutes at room temperature, the reaction is stopped by the addition of 3% phosphoric acid solution. 10 μL of the reaction is then spotted onto a P30 filtermat and washed three times for 5 minutes in 75 mM phosphoric acid and once in methanol prior to drying and scintillation counting.
as §2

For the compound `CCC1CN(c2ccc(C#N)cn2)CCC1Nc1nc(Nc2ccn3c(C)cnc3c2)ncc1Cl` (centres unmarked) [Example 2, 6-(4-((5-chloro-2-((3-methylimidazo[1,2-a]pyridin-7-yl)amino)pyrimidin-4-yl)amino)-3-ethylpiperidin-1-yl)nicotinonitrile], in series [1], the “Clearance (CL) after iv dosing” value is on record as 0.51 L/h/kg; the AUC(0-t) – broadly, the area under the concentration-time curve up to a stated or last time point – is 1960 ng·h/mL; the half-life (as a rule, the time in which the quantity being followed falls by half) is 66 min; the Vd came to 0.73 L/kg. The bioavailability in series [1] is 50.2%. In series [2], it took 46 nM to reach half-maximal inhibition (IC50). In series [3], the IC50 (as a rule, the point on the concentration scale where inhibition reaches its midpoint) worked out at 1 nM.
Take `CCC1CN(c2ccc(C#N)nn2)CCC1Nc1nc(Nc2ccn3c(C)cnc3c2)ncc1Cl` (centres unmarked) [Example 3, 6-(4-((5-chloro-2-((3-methylimidazo[1,2-a]pyridin-7-yl)amino)pyrimidin-4-yl)amino)-3-ethylpiperidin-1-yl)pyridazine-3-carbonitrile]: the IC50 in series [2] worked out at 102 nM; in series [3] it was 0.6 nM.
Consider `N#Cc1ccc(N2CCC(Nc3nc(Nc4ccn5c(C(F)F)nnc5c4)ncc3Cl)CC2)nc1` [Example 30, 6-(4-((5-chloro-2-((3-(difluoromethyl)-[1,2,4]triazolo[4,3-a]pyridin-7-yl)amino)pyrimidin-4-yl)amino)piperidin-1-yl)nicotinonitrile], for which, in series [1], the “Clearance (CL) after iv dosing” value stood at 0.17 L/h/kg, the AUC(0-t) was found to be 5130 ng·h/mL, the half-life is 157 min and the Vd is 0.61 L/kg. Besides, the bioavailability in series [1] was found to be 116%. The compound further yielded an IC50 in series [3] of 0.9 nM. In addition, in series [4], half-maximal inhibition (IC50) required 630 nM.
Regarding `Cc1nc2cc(Nc3ncc(Cl)c(NC4CCN(c5ccc(C#N)cn5)CC4)n3)ccn2n1` [Example 32, 6-(4-((5-chloro-2-((2-methyl-[1,2,4]triazolo[1,5-a]pyridin-7-yl)amino)pyrimidin-4-yl)amino)piperidin-1-yl)nicotinonitrile], in series [1], the “Clearance (CL) after iv dosing” value came to 0.85 L/h/kg, the AUC(0-t) is 2020 ng·h/mL, the half-life was 91.8 min and the Vd was 0.96 L/kg. The bioavailability in series [1] amounted to 180%. Further, the IC50 in series [3] was 0.5 nM. 662 nM corresponded to half-maximal inhibition in series [4] (IC50).
`CC(C)(O)c1nc2cc(Nc3ncc(Cl)c(NC4CCN(c5ccc(C#N)cn5)CC4)n3)ccn2n1` [Example 39, 6-(4-((5-chloro-2-((2-(2-hydroxypropan-2-yl)-[1,2,4]triazolo[1,5-a]pyridin-7-yl)amino)pyrimidin-4-yl)amino)piperidin-1-yl)nicotinonitrile]: in series [1], the “Clearance (CL) after iv dosing” value stood at 0.35 L/h/kg, the AUC(0-t) stood at 2830 ng·h/mL, the half-life was 279 min and the Vd is 1.25 L/kg. Further, the bioavailability in series [1] came out at 52%. Moreover, the IC50 in series [3] amounted to 0.6 nM. Also, half-maximal inhibition in series [4] (IC50) required 708 nM.
Take `CC(C)(O)c1nnc2cc(Nc3ncc(Cl)c(NC4CCN(c5ccc(C#N)cn5)CC4)n3)ccn12` [Example 40]: the IC50 in series [3] was less than 0.3 nM; in series [4] it was 119 nM.
For `Cn1cnc2cc(Nc3ncc(Cl)c(NC4CCN(c5ccc(C#N)cn5)CC4)n3)ccc21` [Example 46, 6-(4-((5-chloro-2-((1-methyl-1H-benzo[d]imidazol-5-yl)amino)pyrimidin-4-yl)amino)piperidin-1-yl)nicotinonitrile], in series [1], the “Clearance (CL) after iv dosing” value is recorded as 0.29 L/h/kg, the AUC(0-t) was 3400 ng·h/mL, the half-life was 60.6 min and the Vd turned out to be 0.42 L/kg. For the same compound, the bioavailability in series [1] was found to be 126%. In addition, the IC50 in series [3] was less than 0.3 nM. This compound registered an IC50 in series [4] of 187 nM.
For the compound `Cn1nnc2cc(Nc3ncc(Cl)c(NC4CCN(c5ccc(C#N)nn5)CC4)n3)ccc21` [Example 47, 6-(4-((5-chloro-2-((l-methyl-1H-benzo[d][1,2,3]triazol-5-yl)amino)pyrimidin-4-yl)amino)piperidin-1-yl)pyridazine-3-carbonitrile], in series [1], the “Clearance (CL) after iv dosing” value is given as 0.70 L/h/kg, the AUC(0-t) is 1490 ng·h/mL, the half-life is 46.8 min and the Vd stood at 0.87 L/kg. In addition, the bioavailability in series [1] worked out at 144%. The compound also came in with an IC50 in series [3] of less than 0.3 nM. The same compound returned an IC50 in series [4] of 116 nM.
For `Cc1nc2cc(Nc3ncc(Cl)c(NC4CCN(c5ccc(C#N)cn5)CC4)n3)ccc2n1C` [Example 48, 6-(4-((5-chloro-2-((1,2-dimethyl-1H-benzo[d]imidazol-5-yl)amino)pyrimidin-4-yl)amino)piperidin-1-yl)nicotinonitrile], in series [1], the “Clearance (CL) after iv dosing” value was determined as 0.67 L/h/kg, the AUC(0-t) came to 1510 ng·h/mL, the half-life was 64.8 min and the Vd was found to be 0.89 L/kg. The bioavailability in series [1] was determined as 79.4%. Also, the half-inhibitory concentration (IC50) in series [3] is less than 0.3 nM. This compound also gave an IC50 in series [4] of 315 nM.
Consider `CC(O)Cc1nc2cc(Nc3ncc(Cl)c(NC4CCN(c5ccc(C#N)nn5)CC4)n3)ccn2n1` (centres unmarked) [Example 56, 6-(4-((5-chloro-2-((2-(2-hydroxypropyl)-[1,2,4]triazolo[1,5-a]pyridin-7-yl)amino)pyrimidin-4-yl)amino)piperidin-1-yl)pyridazine-3-carbonitrile], for which the IC50 in series [3] is 0.5 nM; in series [4], greater than 300 nM.
For `CC(C)(O)c1cnc2cc(Nc3ncc(Cl)c(NC4CCN(c5ccc(C#N)cn5)CC4)n3)ccn12` [Example 68, 6-(4-((5-chloro-2-((3-(2-hydroxypropan-2-yl)imidazo[1,2-a]pyridin-7-yl)amino)pyrimidin-4-yl)amino)piperidin-1-yl)nicotinonitrile], in series [1], the “Clearance (CL) after iv dosing” value stood at 0.90 L/h/kg, the AUC(0-t) worked out at 1090 ng·h/mL, the half-life was 80.4 min and the Vd stood at 1.51 L/kg. The compound also gave an IC50 in series [2] of 223 nM. In series [3], this compound came in with an IC50 of 0.3 nM.
Consider `CC(C)(O)Cc1nnc2cc(Nc3ncc(Cl)c(NC4CCN(c5ccc(C#N)cn5)CC4)n3)ccn12` [Example 74, 6-(4-((5-chloro-2-((3-(2-hydroxy-2-methylpropyl)-[1,2,4]triazolo[4,3-a]pyridin-7-yl)amino)pyrimidin-4-yl)amino)piperidin-1-yl)nicotinonitrile], for which the IC50 turned out to be 46 nM in series [2] and 0.7 nM in series [3].
With `CC(C)(O)Cc1nnc2cc(Nc3ncc(Cl)c(NC4CCN(c5ccc(C#N)nn5)CC4)n3)ccn12` [Example 75, 6-(4-((5-chloro-2-((3-(2-hydroxy-2-methylpropyl)-[1,2,4]triazolo[4,3-a]pyridin-7-yl)amino)pyrimidin-4-yl)amino)piperidin-1-yl)pyridazine-3-carbonitrile], the IC50 is 184 nM in series [2] and 1 nM in series [3].
With `CC(C)(O)Cc1nc2ccc(Nc3ncc(Cl)c(NC4CCN(c5ccc(C#N)nn5)CC4)n3)cn2n1` [Example 79, 6-(4-((5-chloro-2-((2-(2-hydroxy-2-methylpropyl)-[1,2,4]triazolo[1,5-a]pyridin-6-yl)amino)pyrimidin-4-yl)amino)piperidin-1-yl)pyridazine-3-carbonitrile], in series [1], the “Clearance (CL) after iv dosing” value was 16.3 L/h/kg, the AUC(0-t) came out at 1020 ng·h/mL, the half-life is 45.7 min and the Vd came to 1.23 L/kg. Besides, the bioavailability in series [1] stood at 42.1%. In series [3], the midpoint of inhibition, the IC50, lay at 1 nM.
